The results in this text go back to PMC12123458, “Unraveling Small Molecule-Mediated Sirtuin 3 Activation at a Distinct Binding Site for Cardioprotective Therapies” (ACS Central Science, 2025).

Where two headings read alike, the source gives them in different places.

Data set [1] deals with H9c2 cells. The experiment in a line: ATP content in Dox-treated H9c2 cells. It is filed as cell-based. As to conditions: 10 μM. The procedure: ATP concentrations were detected by a firefly luciferin/luciferase-based ATP bioluminescence assay kit (Beyotime, China). The ATP contents were determined as nmol/mg protein by using SYNERGY 4 Microplate Reader (BioTek Instruments).

Data set [2] has as its system LC3, p62, PINK1, Parkin in H9c2 cells. The experiment in a line: Autophagy/mitophagy markers in H9c2 cells (Western blot, immunofluorescence). It is filed as cell-based. To be noted: 24 h. The procedure: Proteomic analysis was conducted on H9c2 cells and murine cardiac tissues. Protein lysates were resolved via SDS-PAGE and transferred onto PVDF membranes. […] After washing, membranes were probed with secondary antibodies for 1 h at room temperature. Detection was facilitated by an ECL kit, with densitometry performed using ImageJ software to quantify protein expression, normalized against controls. The antibodies employed included: anti-SIRT3 (2627, Cell Signaling Technology), anti-acetylated lysine (9441, CST), anti-Ac.K68-MnSOD2 (ab137037, Abcam), anti-Ac.K122-MnSOD2 (ab214675, Abcam), anti-MnSOD2 (13141, CST), anti-LC3B (3868, CST), anti-p62 (8025, CST), anti-PINK1 (6946, CST), anti-Parkin (4211, CST), and anti-β-actin (ab8226, Abcam).
In general terms: Immunoblotting shows a protein as a band on a membrane.

For the next data set, the target named is T1, SIRT2 (Homo sapiens, UniProt Q8IXJ6).
T1 sequence (Q8IXJ6 1-389): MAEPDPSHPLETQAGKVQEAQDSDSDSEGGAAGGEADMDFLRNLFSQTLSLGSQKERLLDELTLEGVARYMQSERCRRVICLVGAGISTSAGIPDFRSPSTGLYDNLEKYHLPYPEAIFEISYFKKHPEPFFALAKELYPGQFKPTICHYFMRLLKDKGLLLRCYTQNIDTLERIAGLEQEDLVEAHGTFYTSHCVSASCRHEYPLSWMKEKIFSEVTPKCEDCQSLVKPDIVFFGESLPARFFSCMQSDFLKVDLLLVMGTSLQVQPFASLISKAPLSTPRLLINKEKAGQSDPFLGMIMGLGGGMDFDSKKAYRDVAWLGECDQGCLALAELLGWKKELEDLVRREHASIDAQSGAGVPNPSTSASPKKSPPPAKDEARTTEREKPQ
Put plainly: Coupled enzymatic assay, acetylated α-tubulin-K25 substrate. It is filed as biochemical. To be noted: 100 μM. From the text: Additionally, we used surface plasmon resonance (SPR) to measure the binding of SKLB-11A to immobilized SIRT3. […] We next evaluated the selectivity of SKLB-11A for different SIRT family members. […] We next examined the functional specificity of SKLB-11A using coupled enzymatic assays with isoform-specific, physiologically relevant substrates: acetylated p53-K381 for SIRT1, acetylated α-tubulin-K25 for SIRT2, acetylated MnSOD-K122 for SIRT3, and succinylated CPS1-K537 for SIRT5 (Supplementary Table S3). […] Using Schrödinger molecular docking simulations, we assessed the binding interactions of SKLB-11A with SIRT isoforms.

Data set [3] in a line: Pharmacokinetics in SD rats. It is filed as in vivo, Sprague–Dawley (SD) rats. As to conditions: for MRT inf: read-out: MRT0–∞; for half-life: read-out: T1/2z (converted). The procedure: Given the potential of SKLB-11A for treating myocardial injury, we further evaluated its pharmacokinetic profile in Sprague–Dawley (SD) rats (Supplementary Table S5). The pharmacokinetics were assessed following both intravenous injection (1 mg/kg) and intragastric administration (10 mg/kg) of SKLB-11A.

Another data set concerns the target SIRT6 (Homo sapiens, UniProt Q8N6T7). Put plainly: SPR binding to SIRT6. The procedure:
The affinity of SKLB-11A for SIRT1, SIRT2, SIRT3, SIRT5, and SIRT6 was determined using a Reichert 4SPR system (Reichert Technologies, Depew, NY, USA). Proteins at 200 μg/mL were immobilized on a dextran-coated sensor chip (13206066) until reaching ≥12,000 response units (RUs). A dual-flow channel setup was used, reserving one channel for blank controls. SKLB-11A was introduced at varying concentrations for binding and subsequent dissociation kinetic analysis. Data acquisition was at 25 °C utilizing a PBST running buffer (pH 7.4). The equilibrium dissociation constant (K d) was computed from steady-state affinity measurements using TraceDrawer software.
On the technique in general: Surface plasmon resonance follows binding to a sensor surface in real time, without labels.

Data set [4] has as its system H9c2 cells. Put plainly: Intracellular ROS (DCFH-DA) and mitochondrial membrane potential (JC-1) in Dox-treated H9c2 cells. In kind it is cell-based. The procedure: Mitochondrial membrane potential and reactive oxygen species (ROS) levels within cells were assessed using the JC-1 Mitochondrial Membrane Potential Assay Kit (Beyotime, Beijing, China) and the DCFH-DA probe (Beyotime, Shanghai, China), respectively, following the manufacturer’s guidelines. , For mitochondrial membrane potential quantification, cells were treated with JC-1 solution and incubated for 20 min at 37 °C in the dark. ROS quantification involved a 25 min incubation at 37 °C in the dark with DCFH-DA solution. Postincubation, cells underwent three gentle washes with prewarmed buffer. Visualization was achieved using a Nikon (Ni-E) fluorescence microscope and quantified by flow cytometry (BD FACS Calibur).

[5] abbreviates: Sprague-Dawley, rat, in vivo, iv, i.v. 1 mg/kg.
The mark [6] stands for this setting: Sprague-Dawley, rat, in vivo, po, p.o. 10 mg/kg.

SIRT6, sequence (Q8N6T7 whole entry, species assumed): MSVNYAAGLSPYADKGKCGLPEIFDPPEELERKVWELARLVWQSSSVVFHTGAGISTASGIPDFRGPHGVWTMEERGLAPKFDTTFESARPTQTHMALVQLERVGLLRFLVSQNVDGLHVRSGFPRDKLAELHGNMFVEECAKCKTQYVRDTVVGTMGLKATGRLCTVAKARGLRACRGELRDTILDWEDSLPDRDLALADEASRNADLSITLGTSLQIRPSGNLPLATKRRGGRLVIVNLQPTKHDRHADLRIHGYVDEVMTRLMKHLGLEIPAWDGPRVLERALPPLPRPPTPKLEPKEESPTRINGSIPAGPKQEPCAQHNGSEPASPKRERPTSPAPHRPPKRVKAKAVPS

For the compound `COC(=O)c1c(N)n(Cc2ccc(F)cc2)c2nc3ccccc3nc12` [SKLB-11A, Methyl 2-amino-1-(4-fluorobenzyl)-1H-pyrrolo[2,3-b]quinoxaline-3-carboxylate], the ATP levels result in the data set with H9c2 cells [1] is recorded as “capable of increasing ATP levels”. In data set [2], the “LC3-II and p62 (autophagic flux)” value is “increased LC3-II expression and reduced p62 levels”; the “expression of PINK1 and Parkin” value is “increased the expression of PINK1 and Parkin”. Moreover, the “effect on basal SIRT2 deacetylation activity” value on SIRT2 is “no statistically significant effects”. In data set [3] (setting [5]), the AUC(0-inf) (in general, the area under the concentration-time curve extrapolated to infinity) was 185 ± 20 ng·h/mL; the AUC(0-t) (in general, exposure summed from dosing to a finite time, without extrapolation to infinity) was 185 ± 19.9 ng·h/mL; the Cmax (as a rule, the peak of the concentration-time curve) is 255 ± 3.42 ng/mL; the Tmax (in general, the time at which the peak concentration occurs) worked out at 4.8 min. Moreover, in data set [3] (setting [5]), the MRT inf turned out to be 43.2 ± 3.6 min and the half-life is 36 ± 3.6 min. In data set [3] (Sprague-Dawley, rat, in vivo, iv, i.v. 1 mg/kg, read-out: CLZ (converted)), the clearance was 90.7 mL/min/kg. Further, in data set [3] (Sprague-Dawley, rat, in vivo, iv, i.v. 1 mg/kg, read-out: VZ), the Vd stood at 4.66 ± 0.2 L/kg. For the same compound, in data set [3] (setting [6]), the AUC(0-inf) is 128 ± 29.2 ng·h/mL, the AUC(0-t) turned out to be 123 ± 23.6 ng·h/mL, the concentration peaked (Cmax) at 67.9 ± 13 ng/mL and the Tmax stood at 15 min. Moreover, in data set [3] (setting [6]), the MRT inf is 266 ± 107 min and the half-life was 326 ± 156 min. In data set [3] (p.o. 10 mg/kg), this compound had a VZ of 39.99 ± 12.09 L/kg. At SIRT6, the “binding to SIRT6” value is “no binding”. The “Dox-induced dissipation of mitochondrial membrane potential (MMP)” value in the data set on H9c2 cells [4] (JC-1) was “notably preserved”. Further, the “Dox-induced increase of ROS levels” value in the data set on H9c2 cells [4] (pretreatment, DCFH-DA) is listed as “effectively suppressed this increase”.
